{"source": "patent EP0216105A1", "about": "“Diazaphosphorines, process for their preparation and their use as pesticide” (priority 1985, dated 1987)", "key": {"[1]": {"system": "Raupe (L5) der Art Spodoptera frugiperda", "experiment": "Spodoptera test (treated artificial diet discs)", "assay_type": "in vivo", "details": "Spodoptera frugiperda caterpillars (L5) on treated artificial diet; compared with the prior art; figures not given", "excerpt": "(§1) • Lösungsmittel: 3 Gewichtsteile Aceton • Emulgator: 1 Gewichtsteil Alkylarylpolyglykolether\nZur Herstellung einer zweckmäßigen Wirkstoffzubereitung vermischt man 1 Gewichtsteil Wirkstoff mit der angegebenen Menge Lösungsmittel und der angegebenen Menge Emulgator und verdünnt das Konzentrat mit Wasser auf die gewünschte Konzentrationen.\nKunstfutterscheiben, die in Plastikdosen liegen, werden durch Beträufeln mit der Wirkstoffzubereitung der gewünschten Konzentration behandelt. Nach Eindringen der Lösung besetzt man die Plastikdosen mit je 1 Raupe (L5) der Art Spodoptera frugiperda, wobei je Versuchsglied 5 Wiederholungen aufgestellt werden. Nach der Verpuppung legt man die Tiere eines Versuchsglieds in eine größere Dose. Nach der gewünschten Zeit wird die Abtötung in % bestimmt. Dabei bedeutet 100 X, daß alle Tiere abgetötet wurden; 0 X bedeutet, daß keine Tiere abgetötet wurden."}, "[2]": {"system": "Lucilia cuprina res.-Larven", "experiment": "Test with resistant Lucilia cuprina larvae", "assay_type": "in vivo", "details": "horse meat, after 24 hours, compared with the prior art, figures not given", "excerpt": "Test mit Lucilia cuprina resistent-Larven\n• Emulgator: 35 Gewichtsteile Ethylenglykolmonomethylether • 35 Gewichtsteile Nonylphenolpolyglykolether\nZur Herstellung einer zweckmäßigen Wirkstoffzubereitung vermischt man drei Gewichtsteile Wirkstoff mit sieben Gewichtsteilen des oben angegebenen Gemisches und verdünnt das so erhaltene Konzentrat mit Wasser auf die jeweils gewünschte Konzentration.\nEtwa 20 Lucilia cuprina res.-Larven werden in ein Teströhrchen gebracht, welches ca. 1 cm^3 Pferdefleisch und O,5 ml der Wirkstoffzubereitung enthält. Nach 24 Stunden wird der Abtötungsgrad bestimmt."}, "[3]": {"system": "Caenorhabditis elegans", "experiment": "In vitro nematode test", "details": "Caenorhabditis elegans, 168 h, concentration at which reproduction is prevented; 7 days at 22°C; read-out: Dosis effectiva", "procedure": "10-^4 g Wirkstoff wurden in 1 ml Wasser oder 0,1 ml Dimethylsulfoxid (DMSO) gelöst. Diese Lösung wurde auf eine Replica-Platte gegeben. Dazu wurden 2 ml einer E-coli-Suspension gegeben, in der man 10-20 weibliche Tiere oder Larven von Caenorhabditis elegans in 0,5 ml M9 Pufferlösung gegeben hat. Die E-coli-Suspension wurde hergestellt indem man 300 ml einer Ubernachthalter eines Uracil-bedürftigen E-coli-Stammes mit 1,8 1 steriler M 9 Pufferlösung versetzte.\nDer Versuchsansatz wurde 7 Tage bei 22°C inkubiert und danach ausgewertet. Es wurde bewertet inwieweit der Wirkstoff die Vermehrung beeinträchtigt und die Konzentration angegeben bei der die Vermehrung verhindert wird."}, "[4]": {"system": "Musca domestica-tmultiresistent) Maden", "experiment": "Fly maggot development inhibition test", "assay_type": "in vivo", "details": "Musca domestica maggots on treated filter paper, 14 days; compared with the prior art; figures not given", "procedure": "Fliegenmaden-Entwicklungshommungstest Testtiere: Musca domestica-tmultiresistent) Maden Lösungsmittel: Aceton\n2 Gewichtsteile Wirkstoff werden in 1 000 Volumenteilen Lösungsmittel aufgenommen. Die so erhaltene Lösung wird mit weiteren Lösungsmitteln auf die gewünschten Konzentrationen verdünnt.\n2,5 ml Wirkstofflösung werden in eine Petrischale pipettiert. Auf dem Boden der Petrischale befindet sich ein Filterpapier mit einem Durchmesser von etwa 9,5 cm. Die Petrischale bleibt so lange offen stehen, bis das Lösungsmittel vollständig verdunstet ist. Je nach Konzentration der Wirkstofflösung ist die Menge Wirkstoff pro m^2 Filterpapier verschieden hoch. Anschließend gibt man etwa 25 Testtiere in die Petrischale und bedeckt sie mit einem Glasdeckel.\n14 Tage nach Ansetzen der Versuche wird die Zahl der geschlüpften Fliegen kontrolliert. Bestimmt wird der X-Satz der Schlüpfhemmung im Vergleich zur unbehandelten Kontrolle."}, "[5]": {"system": "Strongyloides ratti", "experiment": "In vivo nematode test, infected rats", "design": "species or system Ratten", "details": "dose at which 95% of the parasites were killed, oral by gavage on three consecutive days from day 7 after infection; for ED95: Strongyloides ratti, killed day 13, read-out: effektive Dosis", "excerpt": "Experimentell mit Strongyloides ratti infizierte Ratten werden 7 Tage nach der Infektion an drei aufeinanderfolgenden Tagen oral mittels Schlundsonde behandelt. Die Tiere werden 13 Tage nach der Infektion getötet und die Zahl der Parasiten bestimmt. Es wird die […] angegeben, bei der 95% der Parasiten abgetötet wurden (effektive Dosis): […]"}, "[6]": {"system": "Haemonchus contortus", "experiment": "In vivo nematode test, infected sheep (egg count in faeces)", "design": "species or system Schafe", "details": "sheep infected with normally sensitive or benzimidazole-resistant Haemonchus contortus, oral, pure active substance in gelatin capsules, worm egg count before and after treatment; for minimal effective dose: read-out: Dosis effectiva", "excerpt": "Haemonchus contortus 1 Schaf\nExperimentell mit normal empfindlichen bzw. mit gegen Benzimidazol-Anthelmintika resistenten Haemonchus contortus infizierte Schafe wurden nach Ablauf der Präpatenzzeit des Parasiten behandelt. Die Wirkstoffe wurden als reiner Wirkstoff in Gelatinkapseln oral appliziert.\nDer Wirkungsgrad wird dadurch bestimmt, daß man die mit dem Kot ausgeschiedenen Wurmeier vor und nach der Behandlung quantitativ auszählt.\nEin völliges Sistieren der Eiausscheidung nach der Behandlung bedeutet, daß die Würmer abgetrieben wurden oder so geschädigt sind, daß sie keine Eier mehr produzieren."}, "[7]": {"system": "Mückenlarven (L4) (Aedes aegypti)", "experiment": "Aedes test (larvae in aqueous preparation)", "assay_type": "in vivo", "details": "20 Aedes aegypti larvae (L4) per glass; compared with the prior art; figures not given", "excerpt": "• Löcungcmittal: 3 Gewichtsteile Aceton • Emulgator: 1 Gewichtsteil Alkylarylpolyglykolether\nZur Herstellung einer zweckmäßigen Wirkstoffzubereitung vermischt man 1 Gawichtcteil Wirkstoff mit der angegebenen Menge Löcungcmittel und der angegebenen Menge Emulgator und verdünnt das Konzentrat mit Wasser auf die gewünschte Konzentrationen.\nMan füllt die wässrigen Wirkctoffzubereitungen in Gläser und setzt anschließend 20 Mückenlarven (L4) (Aedes aegypti) in jedes Glas ein.\nNach der gewünschten Zeit wird die Abtötung in % bestimmt. Dabei bedeutet 100 X, daß alle Tiere abgetötet wurden; 0 % bedeutet, daß keine Tiere abgetötet wurden."}, "[8]": {"system": "Heterakis spumosa", "experiment": "In vivo nematode test, infected mice", "design": "species or system Mäuse", "details": "Ganguleterakis spumosa, dose at which 95% of the parasites were killed, oral by gavage on four consecutive days from day 32 after infection, killed day 39, read-out: effektive Dosis", "excerpt": "Experimentell mit Heterakis spumosa infizierte Mäuse werden 32 Tage nach der Infektion an vier aufeinanderfolgenden Tage oral mittels Schlundsonde behandelt. Die Tiere werden 39 Tage nach der Infektion getötet und die Zahl der Parasiten bestimmt. Es wird die Wirkstoffkonzentration angegeben bei der 95% der Parasiten abgetötet wurden (effektive Dosis): […]"}, "[9]": {"system": "Larven (L3) des Meerrettichkäfers (Phaedon cochleariae)", "experiment": "Phaedon larvae test (treated cabbage leaves)", "assay_type": "in vivo", "details": "Phaedon cochleariae larvae (L3) on treated Brassica oleracea leaves; compared with the prior art; figures not given", "excerpt": "as §1\nZur Herstellung einer zweckmäßigen Wirkstoffzubereitung vermischt man 1 Gewichtsteil Wirkstoff mit der angegebenen Menge Lösungsmittel und der angegebenen Menge Emulgator und verdünnt das.Konzentrat mit Wasser auf die gewünschte Konzentration.\nKohlpflanzen (Brassica oleracea) werden mit der Wirkstoffzubereitung der gewünschten Konzentration behandelt. Ein Blatt der behandelten Pflanze wird in eine Plastikdose gelegt und mit Larven (L3) des Meerrettichkäfers (Phaedon cochleariae) besetzt. Nach 2 und 4 Tagen wird jeweils ein weiters Blatt von derselben Pflanze für die Nachfütterung verwendet.\nNach der gewünschten Zeit wird die Abtötung in % bestimmt. Dabei bedeutet 100 X, daß alle Käferlarven abgetötet wurden."}, "[10]": {"system": "Hymenolepis nana", "experiment": "In vivo nematode test, infected mice", "design": "species or system Mäuse", "details": "Rodentolepis nana, dose at which 95% of the parasites were killed, oral by gavage on four consecutive days from day 10 after infection, killed day 17, read-out: effektive Dosis", "excerpt": "Experimentell mit Hymenolepis nana infizierte Mäuse werden 10 Tage nach der Infektion an vier aufeinanderfolgenden Tagen oral mittels Schlundsonde behandelt. Die Tiere werden 17 Tage nach Infektion getötet und die Zahl der Parasiten bestimmt. Es wird die Wirkstoffkonzentration angegeben, bei der 95% der Parasiten abgetötet wurden (effektive Dosis): […]"}}}
{"smiles": "CN1C(=O)C(C(=O)Nc2ccc(SC(F)(F)F)cc2)C(=O)N(C)P1(=O)Oc1ccc(Cl)cc1", "note": "(stereo not shown) [Beispiel 24]", "values": [{"measurement": "Abtötung in %", "setting": "[1]", "result": "überlegene Wirksamkeit gegenüber dem Stand der Technik"}, {"measurement": "Abtötungsgrad", "setting": "[2]", "result": "überlegene Wirkung gegenüber dem Stand der Technik"}, {"measurement": "minimal effective concentration", "setting": "[3]", "result": 10, "unit": "µg/mL"}, {"measurement": "X-Satz der Schlüpfhemmung im Vergleich zur unbehandelten Kontrolle", "setting": "[4]", "result": "überlegene Wirksamkeit gegenüber dem Stand der Technik"}, {"measurement": "ED95", "setting": "[5]", "result": 10, "unit": "mg/kg"}, {"measurement": "minimal effective dose", "setting": "[6]", "result": 10, "unit": "mg/kg"}]}
{"smiles": "CN1C(=O)C(C(=O)Nc2ccc(Cl)c(C(F)(F)F)c2)C(=O)N(C)P1(=O)Oc1ccccc1", "note": "(stereo not shown) [Beispiel 12]", "values": [{"measurement": "Abtötung in %", "setting": "[7]", "result": "überlegene Wirksamkeit gegenüber dem Stand der Technik"}, {"measurement": "minimal effective concentration", "setting": "[3]", "result": 10, "unit": "µg/mL"}, {"measurement": "ED95", "setting": "[8]", "result": 25, "unit": "mg/kg"}, {"measurement": "Abtötung in %", "setting": "[9]", "result": "überlegene Wirksamkeit gegenüber dem Stand der Technik"}, {"measurement": "ED95", "setting": "[5]", "result": 100, "unit": "mg/kg"}]}
{"smiles": "CN1C(=O)C(C(=O)Nc2ccc(OC(F)(F)F)cc2)C(=O)N(C)P1(=S)Oc1ccccc1", "note": "(stereo not shown) [Beispiel 7]", "values": [{"measurement": "Abtötung in %", "setting": "[1]", "result": "überlegene Wirksamkeit gegenüber dem Stand der Technik"}, {"measurement": "Abtötung in %", "setting": "[7]", "result": "überlegene Wirksamkeit gegenüber dem Stand der Technik"}, {"measurement": "minimal effective concentration", "setting": "[3]", "result": 10, "unit": "µg/mL"}, {"measurement": "X-Satz der Schlüpfhemmung im Vergleich zur unbehandelten Kontrolle", "setting": "[4]", "result": "überlegene Wirksamkeit gegenüber dem Stand der Technik"}, {"measurement": "ED95", "setting": "[5]", "result": 50, "unit": "mg/kg"}, {"measurement": "minimal effective dose", "setting": "[6]", "result": 50, "unit": "mg/kg"}]}
{"smiles": "CN1C(=O)C(C(=O)Nc2ccc(Cl)c(C(F)(F)F)c2)C(=O)N(C)P1(=O)Oc1ccc(Cl)cc1", "note": "(stereo not shown) [Beispiel 25]", "values": [{"measurement": "Abtötungsgrad", "setting": "[2]", "result": "überlegene Wirkung gegenüber dem Stand der Technik"}, {"measurement": "X-Satz der Schlüpfhemmung im Vergleich zur unbehandelten Kontrolle", "setting": "[4]", "result": "überlegene Wirksamkeit gegenüber dem Stand der Technik"}, {"measurement": "Abtötung in %", "setting": "[9]", "result": "überlegene Wirksamkeit gegenüber dem Stand der Technik"}, {"measurement": "effektive Dosis", "setting": "[5]; killed day 13", "result": 25, "unit": "mg/kg"}, {"measurement": "Dosis effectiva", "setting": "[6]", "result": 25, "unit": "mg/kg"}]}
{"smiles": "CN1C(=O)C(C(=O)Nc2ccc(Oc3ccc(C(F)(F)F)cc3)cc2)C(=O)N(C)P1(=O)Oc1ccc(Cl)cc1", "note": "(stereo not shown) [Beispiel 3]", "values": [{"measurement": "minimal effective dose", "setting": "[6]", "result": 50, "unit": "mg/kg"}]}
{"smiles": "CCN1C(=O)C(C(=O)Nc2ccc(Oc3cccc(C(F)(F)F)c3)cc2)C(=O)N(C)P1(=O)Oc1cccc(Cl)c1", "note": "(stereo not shown) [Beispiel 47]", "values": [{"measurement": "minimal effective dose", "setting": "[6]", "result": 10, "unit": "mg/kg"}]}
{"smiles": "CN1C(=O)C(C(=O)Nc2ccc(Cl)c(C(F)(F)F)c2)C(=O)N(C)P1(=O)Oc1ccc(Cl)cc1", "note": "(stereo not shown) [Beispiel 9]", "values": [{"measurement": "Abtötung in %", "setting": "[1]", "result": "überlegene Wirksamkeit gegenüber dem Stand der Technik"}, {"measurement": "Abtötung in %", "setting": "[7]", "result": "überlegene Wirksamkeit gegenüber dem Stand der Technik"}, {"measurement": "minimal effective concentration", "setting": "[3]", "result": 10, "unit": "µg/mL"}, {"measurement": "ED95", "setting": "[10]", "result": 50, "unit": "mg/kg"}, {"measurement": "ED95", "setting": "[8]", "result": 25, "unit": "mg/kg"}, {"measurement": "ED95", "setting": "[5]", "result": 25, "unit": "mg/kg"}, {"measurement": "minimal effective dose", "setting": "[6]", "result": 25, "unit": "mg/kg"}]}
